Tested on: HCoV-OC43
Experiment: Test Example 2: CPE inhibition in HCoV-OC43 infected BHK-21 cells, single or combination use
Assay type: cell-based, Human coronavirus (HCoV-OC43)
[1] = Betacoronavirus 1, OC43, BHK-21, read-out: CPE inhibition rate

SMILES | inhibition at 0.1 µM [1] [%] | inhibition at 0.3 µM [1] [%] | CPE inhibition rate (single use of 1000 μM of T-705, BHK-21 cells) [%]
CCC(CC)COC(=O)[C@H](C)N[P@](=O)(OC[C@H]1O[C@@](C#N)(c2ccc3c(N)ncnn23)[C@H](O)[C@@H]1O)Oc1ccccc1 [remdesivir] | 51 | 80 | –
NC(=O)c1nc(F)cnc1O [T-705, favipiravir] | – | – | 79
